Experimental data: patent US20180086817A1, “Preventing, Treating or Arresting Alzheimer's, Stroke, Cardiovascular and other Amyloid Related Diseases” (priority 2016, published 2018)

Columns and labels:
L68Q cystatin C = target: T1, L68Q cystatin C (Homo sapiens, UniProt P01034, L94Q); assay: Preliminary trial of N-acetylcysteine in HCCAA patients expressing L68Q cystatin C, with biopsy; assay type: in vivo
T1 construct: confirmed by genetic screen to express L68Q cystatin C; from tissue; host or cells: HCCAA patients; biopsy (tissue not given)
T1 sequence (P01034 27-146 L94Q): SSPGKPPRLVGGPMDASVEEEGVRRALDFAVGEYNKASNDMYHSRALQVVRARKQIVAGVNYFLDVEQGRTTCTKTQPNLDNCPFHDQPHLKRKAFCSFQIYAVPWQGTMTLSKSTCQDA
Protocol: For an early test of effectiveness of glutathione supportive therapy in the treatment of HCCAA and similar disease involving plaque formation, human trials are planned using accepted and previously approved therapeutic interventions. Initial trials involve n-acetylcysteine based on its chemistry and historical acceptance in human therapies. Doses ranging from as low as 200 mg/day, but at least in the early trials, at higher levels to emphasize effect have been proposed with initial regulatory approvals in high risk HCCAA patients.
Three persons who had been identified through characteristic HCCAA symptoms confirmed by genetic screen to express L68Q cystatin C agreed to participate in a preliminary trial with a prototype drug to support antioxidant and other effects of GSH. N-acetylcysteine was used as a GSH-support/anti-cystatin-C-polymerization archetypical drug for conceptual proof and support of the hypotheses supporting this invention. […] One patient fully complied with the prescribed protocol. Two patients were only partially compliant. The fully compliant patient presented with a 50% reduction in plaques observed on biopsy.
Treatments are continuing, augmented by confirmatory/advisory biopsies. Biopsy intervals may be approximately weekly, but longer intervals are envisioned as sufficient to monitor effects and dosages and to encourage compliance in testing and treatment maintenance. For example, biopsy intervals may be weekly, biweekly, monthly, bimonthly, quarterly, semi-annual, annual, etc. Biopsy appointments may be used both for treatment/disease monitoring, but also to maintain patient attention and interaction. Medical advisory panels and insurance issues may also be considered in determining the frequency and type(s) of biopsies.

cellular glutathione = conditions: cited from earlier work

SMILES	disease course (L68Q cystatin C; all three HCCAA patients (L68Q cystatin C), one fully and two partially compliant)	reduction in plaques observed on biopsy (L68Q cystatin C; fully compliant patient) [%]	aggregated protein previously observed (L68Q cystatin C; one of the partially compliant patients)	disease course (L68Q cystatin C; remaining non-compliant patient)	effect on glutathione over time (cellular glutathione; 25 mg/kg OTC in conjunction with 800 mg/day glutathione IM)	time by which effect wanes in plasma (cellular glutathione; dose of about 22-65 mg/kg, post administration) [h]	cellular glutathione (cellular glutathione; dose of about 22-65 mg/kg, shortly after administration)
CC(=O)N[C@@H](CS)C(=O)O [N-acetylcysteine]	disease arrest	50	significant reduction	disease arrest	–	–	–
O=C1N[C@H](C(=O)O)CS1 [OTC, L-2-oxothiazolidine-4-carboxolate]	–	–	–	–	continued effect	≤ 8	double
